Data as given in patent US20220220128A1, “HETEROCYCLIC COMPOUNDS AS KINASE INHIBITORS, COMPOSITIONS COMPRISING THE HETEROCYCLIC COMPOUND, AND METHODS OF USE THEREOF” (JS Innopharm (Shanghai) Ltd, priority 2019, published 2022).
pIC50: −log10 of the molar value. Like-named read-outs stand apart in the source and are kept apart here.

Tests used:
human RET kinase = biological target: T1, human RET kinase (Homo sapiens, UniProt P07949); assay: RET Kinase Assay (LanthaScreen TR-FRET enzymatic assay); type: biochemical; details: 7 nM RET, 23 μM ATP
T1 construct: purchased Carna 08-159
In short: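 Human RET (7 nM) preincubated 15 min with compound in 50 mM HEPES pH 7.5, 0.0015% Brij-35, then reacted with 3 μM FAM-P2 peptide and 23 μM ATP for 1 h at 28° C.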

human KDR kinase = biological target: T2, human KDR kinase (Homo sapiens, UniProt P35968); assay: KDR Kinase Assay (LanthaScreen TR-FRET enzymatic assay); type: biochemical; details: 1.2 nM KDR, 92 μM ATP
T2 construct: purchased Carna 08-191
In short: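 Recombinant human KDR (1.2 nM) preincubated 15 min at room temperature with compound, then reacted with 3 μM FAM-P22 peptide and 92 μM ATP in 50 mM HEPES pH 7.5 for 1 h at 28° C. EDTA stop, then TR-FRET acceptor/donor ratio read; percent of 1% DMSO control fitted sigmoidally for IC50.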

TT cells = assay: TT Cell Proliferation Assay (WST-8, 8 days); type: cell-based; details: Homo sapiens, 192 h, growth inhibition in TT cells, read-out: TT Cellular Activity
In short: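 TT cells, 6,000/well in RPMI-1640 with 10% FBS, attached 24 h, then exposed to compound at 5 μM down to 0.0005 μM final (0.5% DMSO) for 8 days at 37 °C. WST-8 added for 5 h, absorbance at 450 nm. IC50 calculated from the dilution series.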

BAF3-KIF5B-RET cells = biological target: T3, BAF3-KIF5B-RET cells (Homo sapiens, UniProt P07949); assay: BAF3-KIF5B-RET Cell proliferation assay (CellTiter-Glo, 72 hours); type: cell-based; details: growth inhibition, read-out: BA/F3-KIF5B-RET Cellular activity
T3 construct: fused on or other part: P33176 (Kinesin-1 heavy chain)
In short: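 Cells seeded at 2,000/well in RPMI-1640 with 10% FBS and left 24 h at 37 °C, then exposed 72 h to nine compound levels (final 1 μM down to 0.00015 μM, 0.1% DMSO). CellTiter-Glo luminescence gave viability versus DMSO wells, from which IC50 was fitted.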

T1 sequence (P07949 29-1114): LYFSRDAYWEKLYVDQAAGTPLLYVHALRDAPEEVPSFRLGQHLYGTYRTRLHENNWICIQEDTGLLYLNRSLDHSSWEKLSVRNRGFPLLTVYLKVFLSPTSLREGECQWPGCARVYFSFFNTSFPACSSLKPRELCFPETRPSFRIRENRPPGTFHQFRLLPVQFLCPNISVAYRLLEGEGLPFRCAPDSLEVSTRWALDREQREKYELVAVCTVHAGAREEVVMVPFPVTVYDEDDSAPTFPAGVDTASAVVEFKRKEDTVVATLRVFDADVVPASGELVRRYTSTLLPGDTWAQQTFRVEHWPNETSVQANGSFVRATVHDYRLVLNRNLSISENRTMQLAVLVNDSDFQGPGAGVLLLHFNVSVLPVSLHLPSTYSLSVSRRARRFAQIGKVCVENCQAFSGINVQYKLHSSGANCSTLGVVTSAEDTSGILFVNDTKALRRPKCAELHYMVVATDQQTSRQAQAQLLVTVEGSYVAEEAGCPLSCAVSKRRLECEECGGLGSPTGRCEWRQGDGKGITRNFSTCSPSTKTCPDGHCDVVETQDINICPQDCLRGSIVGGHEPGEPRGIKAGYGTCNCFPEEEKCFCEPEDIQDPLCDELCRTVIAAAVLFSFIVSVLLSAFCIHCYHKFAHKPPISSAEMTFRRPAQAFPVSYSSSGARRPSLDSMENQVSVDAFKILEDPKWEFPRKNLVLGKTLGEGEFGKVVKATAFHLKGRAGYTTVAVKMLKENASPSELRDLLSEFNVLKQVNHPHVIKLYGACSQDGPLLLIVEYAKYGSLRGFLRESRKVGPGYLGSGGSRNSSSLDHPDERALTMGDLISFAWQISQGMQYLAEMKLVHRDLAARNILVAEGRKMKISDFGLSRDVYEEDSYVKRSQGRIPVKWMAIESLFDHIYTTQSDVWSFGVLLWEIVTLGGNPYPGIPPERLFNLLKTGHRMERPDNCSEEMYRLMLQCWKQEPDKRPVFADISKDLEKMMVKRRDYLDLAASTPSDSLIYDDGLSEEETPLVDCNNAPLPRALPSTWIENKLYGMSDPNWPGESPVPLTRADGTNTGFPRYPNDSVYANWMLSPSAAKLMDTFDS
T3 sequence (P07949 whole entry, change not shown, the tested form may be a part): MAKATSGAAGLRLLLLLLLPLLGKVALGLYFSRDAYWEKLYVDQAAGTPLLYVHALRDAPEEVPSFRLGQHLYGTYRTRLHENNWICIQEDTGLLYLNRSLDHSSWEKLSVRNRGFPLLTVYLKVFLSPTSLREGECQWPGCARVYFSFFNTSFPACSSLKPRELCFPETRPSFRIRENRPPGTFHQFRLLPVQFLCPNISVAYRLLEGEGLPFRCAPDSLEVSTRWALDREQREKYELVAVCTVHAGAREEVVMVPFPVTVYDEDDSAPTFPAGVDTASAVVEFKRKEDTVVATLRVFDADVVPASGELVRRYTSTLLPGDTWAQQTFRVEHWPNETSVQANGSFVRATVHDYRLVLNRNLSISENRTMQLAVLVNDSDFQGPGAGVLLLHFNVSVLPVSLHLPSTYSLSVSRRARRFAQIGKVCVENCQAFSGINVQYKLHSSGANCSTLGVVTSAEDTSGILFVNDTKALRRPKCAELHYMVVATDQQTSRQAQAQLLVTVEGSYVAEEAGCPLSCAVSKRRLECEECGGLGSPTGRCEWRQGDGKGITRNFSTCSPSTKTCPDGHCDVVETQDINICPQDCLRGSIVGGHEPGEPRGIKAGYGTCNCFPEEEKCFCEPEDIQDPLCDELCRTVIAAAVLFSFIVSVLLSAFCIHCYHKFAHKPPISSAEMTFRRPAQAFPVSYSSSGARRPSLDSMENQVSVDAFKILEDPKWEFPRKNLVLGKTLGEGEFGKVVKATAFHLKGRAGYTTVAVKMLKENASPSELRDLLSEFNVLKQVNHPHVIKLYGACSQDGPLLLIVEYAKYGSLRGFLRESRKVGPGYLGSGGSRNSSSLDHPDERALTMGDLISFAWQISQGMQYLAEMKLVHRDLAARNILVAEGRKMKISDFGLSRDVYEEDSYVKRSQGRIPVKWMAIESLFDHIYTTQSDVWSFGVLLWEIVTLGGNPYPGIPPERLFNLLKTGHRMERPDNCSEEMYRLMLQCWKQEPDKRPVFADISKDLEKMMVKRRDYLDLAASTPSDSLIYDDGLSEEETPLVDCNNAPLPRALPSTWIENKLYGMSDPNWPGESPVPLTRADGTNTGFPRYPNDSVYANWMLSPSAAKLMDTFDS
T2 sequence (P35968 20-1356): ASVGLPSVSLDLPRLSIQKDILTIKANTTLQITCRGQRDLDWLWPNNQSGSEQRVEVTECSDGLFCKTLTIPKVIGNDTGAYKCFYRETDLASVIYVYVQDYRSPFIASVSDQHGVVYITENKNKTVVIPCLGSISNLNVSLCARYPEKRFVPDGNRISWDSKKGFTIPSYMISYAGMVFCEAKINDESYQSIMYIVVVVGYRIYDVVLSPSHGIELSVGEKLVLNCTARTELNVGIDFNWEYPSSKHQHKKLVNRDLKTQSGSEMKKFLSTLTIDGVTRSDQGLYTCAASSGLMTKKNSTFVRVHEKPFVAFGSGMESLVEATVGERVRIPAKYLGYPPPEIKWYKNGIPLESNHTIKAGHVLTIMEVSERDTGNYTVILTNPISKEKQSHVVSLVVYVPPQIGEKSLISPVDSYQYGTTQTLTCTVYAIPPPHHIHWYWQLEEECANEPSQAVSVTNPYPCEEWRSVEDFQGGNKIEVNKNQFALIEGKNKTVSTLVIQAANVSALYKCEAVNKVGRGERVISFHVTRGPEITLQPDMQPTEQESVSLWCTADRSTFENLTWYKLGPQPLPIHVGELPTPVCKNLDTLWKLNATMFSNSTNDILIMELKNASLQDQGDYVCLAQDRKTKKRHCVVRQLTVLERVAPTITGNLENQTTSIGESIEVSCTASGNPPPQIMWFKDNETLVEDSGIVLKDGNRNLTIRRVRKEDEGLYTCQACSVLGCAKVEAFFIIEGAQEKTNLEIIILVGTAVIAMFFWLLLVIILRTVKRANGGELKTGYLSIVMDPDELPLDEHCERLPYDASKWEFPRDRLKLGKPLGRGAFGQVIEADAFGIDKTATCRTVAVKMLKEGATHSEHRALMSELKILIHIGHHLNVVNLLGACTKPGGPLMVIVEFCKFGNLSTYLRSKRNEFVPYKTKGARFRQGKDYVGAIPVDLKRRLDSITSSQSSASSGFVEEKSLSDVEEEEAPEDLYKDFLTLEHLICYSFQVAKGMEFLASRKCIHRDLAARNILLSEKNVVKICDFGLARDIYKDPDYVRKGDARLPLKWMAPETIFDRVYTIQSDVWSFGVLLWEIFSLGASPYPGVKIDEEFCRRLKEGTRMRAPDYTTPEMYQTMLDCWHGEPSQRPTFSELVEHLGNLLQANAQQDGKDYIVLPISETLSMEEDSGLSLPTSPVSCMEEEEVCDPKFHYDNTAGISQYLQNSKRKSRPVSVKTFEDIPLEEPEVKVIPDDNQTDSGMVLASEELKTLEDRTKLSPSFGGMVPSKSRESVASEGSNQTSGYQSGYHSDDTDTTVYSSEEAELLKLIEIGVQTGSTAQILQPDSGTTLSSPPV

Cn1cc(-c2cc(-c3ccc(N4C[C@@H]5[C@@H](CNC(=O)c6ncccc6Cl)[C@@H]5C4)nc3)c3c(C#N)cnn3c2)cn1 [Example 73, 3-chloro-N-(((1R,5S,6s)-3-(5-(3-cyano-6-(1-methyl-1H-pyrazol-4-yl)pyrazolo[1,5-a]pyridin-4-yl)pyridin-2-yl)-3-azabicyclo[3.1.0]hexan-6-yl)methyl)picolinamide]
pIC50 (human RET kinase): ≥ 8.00 | pIC50 (human KDR kinase): ≥ 8.00 | pIC50 (TT cells; TT): ≥ 8.00 | GI50 (BAF3-KIF5B-RET cells): ≤ 10 nM

CC(C)(O)COc1cc(-c2ccc(N3C4CC5CC3CC(NC(=O)c3ncccc3Cl)(C5)C4)nc2)c2c(C#N)cnn2c1 [Example 135, 3-chloro-N-((1R,3S,5s,7s)-2-(5-(3-cyano-6-(2-hydroxy-2-methylpropoxy)pyrazolo[1,5-a]pyridin-4-yl)pyridin-2-yl)-2-azaadamantan-5-yl)picolinainide]
pIC50 (human RET kinase): ≥ 8.00 | pIC50 (human KDR kinase): 7.30 to 8.00 | pIC50 (TT cells; TT): ≥ 8.00 | GI50 (BAF3-KIF5B-RET cells): ≤ 10 nM

CC(C)C(=O)NC12CC3CC(C1)N(c1ccc(-c4cc(OCC(C)(C)O)cn5ncc(C#N)c45)cn1)C(C3)C2 [Example 132, N-((1R,3S,5s,7s)-2-(5-(3-cyano-6-(2-hydroxy-2-methylpropoxy)pyrazolo[1,5-a]pyridin-4-yl)pyridin-2-yl)-2-azaadamantan-5-yl)isobutyramide]
pIC50 (human RET kinase): ≥ 8.00 | pIC50 (human KDR kinase): < 7.00 | pIC50 (TT cells; TT): ≥ 8.00 | GI50 (BAF3-KIF5B-RET cells): 10 to 50 nM

COc1ccc(CN[C@]2(C)C[C@H]3CN(c4cnc(-c5cc(-c6cnn(C)c6)cn6ncc(C#N)c56)cn4)C[C@H]3C2)cn1 [Example 101, 4-(5-((3aR,5s,6aS)-5-(((6-methoxypyridin-3-yl)methyl)amino)-5-methylhexahydrocyclopenta[c]pyrrol-2(1H)-yl)pyrazin-2-yl)-6-(1-methyl-1H-pyrazol-4-yl)pyrazolo[1,5-a]pyridine-3-carbonitrile]
pIC50 (human RET kinase): ≥ 8.00 | pIC50 (human KDR kinase): 7.00 to 7.30 | pIC50 (TT cells; TT): 7.00 to 7.30 | GI50 (BAF3-KIF5B-RET cells): 50 to 100 nM

CC(C)(O)COc1cc(-c2ccc(N3C[C@H]4CN(C(=O)c5ncccc5Cl)C[C@H]4C3)nc2)c2c(C#N)cnn2c1 [Example 7, 4-(6-((3aR,6aS)-5-(3-chloropicolinoyl)hexahydropyrrolo[3,4-c]pyrrol-2(1H)-yl)pyridin-3-yl)-6-(2-hydroxy-2-methylpropoxy)pyrazolo[1,5-a]pyridine-3-carbonitrile]
pIC50 (human RET kinase): ≥ 8.00 | pIC50 (human KDR kinase): < 7.00 | pIC50 (TT cells; TT): ≥ 8.00 | GI50 (BAF3-KIF5B-RET cells): 50 to 100 nM

COc1ccc(CN2C[C@@H]3CN(c4ccc(-c5cc(-c6cnn(C)c6)cn6ncc(C#N)c56)cn4)C[C@@H]3C2)cn1 [Example 12, 4-(6-((3aR,6aS)-5-((6-methoxypyridin-3-yl)methyl)hexahydropyrrolo[3,4-c]pyrrol-2(1H)-yl)pyridin-3-yl)-6-(1-methyl-1H-pyrazol-4-yl)pyrazolo[1,5-a]pyridine-3-carbonitrile]
pIC50 (human RET kinase): ≥ 8.00 | pIC50 (human KDR kinase): 7.30 to 8.00 | pIC50 (TT cells): 7.30 to 8.00 | GI50 (BAF3-KIF5B-RET cells): ≤ 10 nM

CC(=O)NC12CC3CC(C1)N(c1ccc(-c4cc(-c5cnn(C)c5)cn5ncc(C#N)c45)cn1)C(C3)C2 [Example 97, N-((1R,3S,5s,7s)-2-(5-(3-cyano-6-(1-methyl-1H-pyrazol-4-yl)pyrazolo[1,5-a]pyridin-4-yl)pyridin-2-yl)-2-azaadamantan-5-yl)acetamide]
pIC50 (human RET kinase): ≥ 8.00 | pIC50 (human KDR kinase): ≥ 8.00 | pIC50 (TT cells; TT): ≥ 8.00 | GI50 (BAF3-KIF5B-RET cells): ≤ 10 nM

Cn1cc(-c2cc(-c3ccc(N4C[C@@H]5C[C@@](C)(NC(=O)c6ncccc6Cl)C[C@@H]5C4)nc3)c3c(C#N)cnn3c2)cn1 [Example 55, 3-chloro-N-((3aR,5s,6aS)-2-(5-(3-cyano-6-(1-methyl-1H-pyrazol-4-yl)pyrazolo[1,5-a]pyridin-4-yl)pyridin-2-yl)-5-methyloctahydro-cyclopenta[c]pyrrol-5-yl)picolinamide]
pIC50 (human RET kinase): ≥ 8.00 | pIC50 (human KDR kinase): ≥ 8.00 | pIC50 (TT cells; TT): ≥ 8.00 | GI50 (BAF3-KIF5B-RET cells): ≤ 10 nM

CC(C)(O)COc1cc(-c2ccc(N3C4CC5CC3CC(NC(=O)c3ncccc3F)(C5)C4)nc2)c2c(C#N)cnn2c1 [Example 137, N-((1R,3S,5s,7s)-2-(5-(3-cyano-6-(2-hydroxy-2-methylpropoxy)pyrazolo[1,5-a]pyridin-4-yl)pyridin-2-yl)-2-azaadamantan-5-yl)-3-fluoropicolinamide]
pIC50 (human RET kinase): ≥ 8.00 | pIC50 (human KDR kinase): 7.00 to 7.30 | pIC50 (TT cells; TT): ≥ 8.00 | GI50 (BAF3-KIF5B-RET cells): ≤ 10 nM

Cn1cc(-c2cc(-c3ccc(N4C5CC6CC4CC(NC(=O)OC(C)(C)C)(C6)C5)nc3)c3c(C#N)cnn3c2)cn1 [Example 180]
pIC50 (human RET kinase): ≥ 8.00 | pIC50 (human KDR kinase): ≥ 8.00 | pIC50 (TT cells; TT): ≥ 8.00 | GI50 (BAF3-KIF5B-RET cells): ≤ 10 nM

CC(C)(O)COc1cc(-c2ccc(N3C[C@@H]4C[C@@](C)(NC(=O)c5c(F)cccc5Cl)C[C@@H]4C3)nc2)c2c(C#N)cnn2c1 [Example 96, 2-chloro-N-((3aR,5s,6aS)-2-(5-(3-cyano-6-(2-hydroxy-2-methylpropoxy)pyrazolo[1,5-a]pyridin-4-yl)pyridin-2-yl)-5-methyloctahydrocyclopenta[c]pyrrol-5-yl)-6-fluorobenzamide]
pIC50 (human RET kinase): ≥ 8.00 | pIC50 (human KDR kinase): 7.30 to 8.00 | pIC50 (TT cells; TT): ≥ 8.00 | GI50 (BAF3-KIF5B-RET cells): ≤ 10 nM

CC(C)(O)COc1cc(-c2ccc(N3C4CC5CC3CC(C(=O)Nc3ncccc3Cl)(C5)C4)nc2)c2c(C#N)cnn2c1 [Example 98, (1R,3 S,5s,7s)-N-(3-chloropyridin-2-yl)-2-(5-(3-cyano-6-(2-hydroxy-2-methylpropoxy)pyrazolo[1,5-a]pyridin-4-yl)pyridin-2-yl)-2-azaadamantane-5-carboxamide]
pIC50 (human RET kinase): ≥ 8.00 | pIC50 (human KDR kinase): 7.30 to 8.00 | pIC50 (TT cells; TT): ≥ 8.00 | GI50 (BAF3-KIF5B-RET cells): ≤ 10 nM

Cn1cc(-c2cc(-c3cnc(N4C[C@@H]5C[C@@](C)(NC(=O)c6ncccc6Cl)C[C@@H]5C4)cn3)c3c(C#N)cnn3c2)cn1 [Example 61]
pIC50 (human RET kinase): ≥ 8.00 | pIC50 (human KDR kinase): 7.30 to 8.00 | pIC50 (TT cells; TT): ≥ 8.00 | GI50 (BAF3-KIF5B-RET cells): ≤ 10 nM

Cn1cc(-c2cc(-c3ccc(N4C[C@@H]5[C@H](C4)[C@H]5NS(=O)(=O)c4c(F)cccc4Cl)nc3)c3c(C#N)cnn3c2)cn1 [Example 46, 2-chloro-N-((1R,5S,6s)-3-(5-(3-cyano-6-(1-methyl-1H-pyrazol-4-yl)pyrazolo[1,5-a]pyridin-4-yl)pyridin-2-yl)-3-azabicyclo[3.1.0]hexan-6-yl)-6-fluorobenzene-sulfonamide]
pIC50 (human RET kinase): ≥ 8.00 | pIC50 (human KDR kinase): ≥ 8.00 | pIC50 (TT cells; TT): ≥ 8.00 | GI50 (BAF3-KIF5B-RET cells): ≤ 10 nM

Cn1cc(-c2cc(-c3ccc(N4C[C@@H]5C[C@@](C)(NC(=O)c6ncccc6C#N)C[C@@H]5C4)nc3)c3c(C#N)cnn3c2)cn1 [Example 121, 3-cyano-N-((3aR,5s,6aS)-2-(5-(3-cyano-6-(1-methyl-1H-pyrazol-4-yl)pyrazolo[1,5-a]pyridin-4-yl)pyridin-2-yl)-5-methyloctahydrocyclopenta[c]pyrrol-5-yl)picolinamide]
pIC50 (human RET kinase): ≥ 8.00 | pIC50 (human KDR kinase): ≥ 8.00 | pIC50 (TT cells; TT): ≥ 8.00 | GI50 (BAF3-KIF5B-RET cells): ≤ 10 nM

CC(C)C(O)C(=O)NC[C@@H]1[C@H]2CN(c3ccc(-c4cc(-c5cnn(C)c5)cn5ncc(C#N)c45)cn3)C[C@@H]12 (stereo partly drawn) [Example 75, N-(((1R,5S,6s)-3-(5-(3-cyano-6-(1-methyl-1H-pyrazol-4-yl)pyrazolo[1,5-a]pyridin-4-yl)pyridin-2-yl)-3-azabicyclo[3.1.0]hexan-6-yl)methyl)-2-hydroxy-3-methylbutanamide]
pIC50 (human RET kinase): ≥ 8.00 | pIC50 (human KDR kinase): 7.30 to 8.00 | pIC50 (TT cells; TT): ≥ 8.00 | GI50 (BAF3-KIF5B-RET cells): ≤ 10 nM

CC(C)(O)COc1cc(-c2ccc(N3C[C@@H]4[C@H](C3)[C@H]4NC(=O)c3ncccc3Cl)nc2)c2c(C#N)cnn2c1 [Example 37, 3-chloro-N-((1R,5S,6s)-3-(5-(3-cyano-6-(2-hydroxy-2-methylpropoxy)pyrazolo[1,5-a]pyridin-4-yl)pyridin-2-yl)-3-azabicyclo[3.1.0]hexan-6-yl)picolinamide]
pIC50 (human RET kinase): ≥ 8.00 | pIC50 (human KDR kinase): < 7.00 | pIC50 (TT cells; TT): 7.00 to 7.30 | GI50 (BAF3-KIF5B-RET cells): > 100 nM

CC(C)(O)COc1cc(-c2cnc(N3C[C@@H]4[C@@H](CNC(=O)c5ncccc5Cl)[C@@H]4C3)cn2)c2c(C#N)cnn2c1 [Example 103, 3-chloro-N-(((1R,5S,6s)-3-(5-(3-cyano-6-(2-hydroxy-2-methylpropoxy)pyrazolo[1,5-a]pyridin-4-yl)pyrazin-2-yl)-3-azabicyclo[3.1.0]hexan-6-yl)methyl)picolinamide]
pIC50 (human RET kinase): ≥ 8.00 | pIC50 (human KDR kinase): < 7.00 | GI50 (BAF3-KIF5B-RET cells): 10 to 50 nM

CC(C)(O)COc1cc(-c2cnc(N3C[C@@H]4C[C@@](C)(NC(=O)c5ncccc5Cl)C[C@@H]4C3)cn2)c2c(C#N)cnn2c1 [Example 143, 3-chloro-N-((3aR,5s,6aS)-2-(5-(3-cyano-6-(2-hydroxy-2-methylpropoxy)pyrazolo[1,5-a]pyridin-4-yl)pyrazin-2-yl)-5-methyloctahydrocyclopenta[c]pyrrol-5-yl)picolinamide]
pIC50 (human RET kinase): ≥ 8.00 | pIC50 (human KDR kinase): < 7.00 | GI50 (BAF3-KIF5B-RET cells): 10 to 50 nM
